In US20090281054A1, “COMPOSITIONS AND METHODS COMPRISING CAPURAMYCIN ANALOGUES” (priority 2008, published 2009):
Converted amounts (≈) assume the structure as drawn. “And” between values parts separate entries of the source, which are not always exact repeats. Identical values can stand only once. Like-named read-outs stand apart in the source and are kept apart here.

Experiments:
[1] = test system: MTB; format: in vivo, mouse; details: 2 weeks treatment; for Lung CFU ± SD: Control 3.8 ± 1.9 × 10^8; for Lung Log CFU: Control 8.58
[2] = test system: MTB in macrophages; format: cell-based, Mycobacterium tuberculosis
[3] = test system: MTB H37Rv; assay: MIC by broth microdilution; format: cell-based; details: Mycobacterium tuberculosis
Procedure: (§1) The SQ997 amino acid derivatives shown in Table 2 were tested for in vitro activity against MTB, cytotoxicity for uninfected J774 cells to determine IC50, and for intracellular activity in the macrophage assay (Table 15). […] Cell viability remained similar to SQ997, or slightly better as cell morphologic changes were reduced.

[4] = in vitro; format: cell-based; details: mouse
Procedure: as §1

[5] = test system: intracellular MTB (MTBp-SMT1) in J774A.1 macrophages; assay: Intracellular activity of SQ641-TPGS micelles; format: cell-based, Mycobacterium tuberculosis
[6] = test system: M. kansaii (MKN; ATCC12478 & 35775); assay: MIC by microdilution method in 7H9 broth; format: cell-based, M. kansasii; details: Mycobacterium kansasii, read-out: MIC
[7] = test system: M. smegmatis (MSMG; MC2155); assay: MIC by microdilution method in 7H9 broth; format: cell-based; details: Mycolicibacterium smegmatis, MC2155|MC^2155; MSMG MC^2155; 72 hr; read-out: MIC
[8] = test system: MTB inside macrophages; assay: Intracellular activity of DMSO-solubilized drug in MTB infected macrophages; format: cell-based, Mycobacterium tuberculosis; details: 0.25 μg/ml (2 X MIC); Day 0 RLU 443, Control Day 7 4251
[9] = test system: MTB in J774 cells; assay: Intracellular activity of amino acid conjugates; format: cell-based, Mycobacterium tuberculosis; details: 0.125 μg/ml; day 0 RLU 775, Control day 7 31700
Procedure: The amino acid conjugates were tested at concentrations of 4 mg/mL and 8 mg/mL compared with a control and isoniazid (INH).
The intracellular activity against MTB by capuramycin amino acid derivatives was tested. Cells J774 were infected with MTB and treated for 7 days with the amino acid derivative. The mean Relative Light Unites (RLU), an estimation of bacterial viability, was measured as described in Snewin et al., Infect. Immun., 1999, 67(9), 4586-4593).

[10] = test system: MTB-pSMT1 luciferase reporter strain; assay: Activity against slowly replicating (hypoxic) MTB; format: cell-based; details: Mycobacterium tuberculosis
[11] = test system: M. smegmatis; assay: Synergy by checkerboard titration (microdilution); format: cell-based; details: M. smegmatis
[12] = test system: MTB-H37Rv; assay: Post-antibiotic effect (PAE); format: cell-based, Mycobacterium tuberculosis; details: 4 μg/ml, 2 hr of exposure
Procedure: PAE of SQ641. PAE of SQ641 was determined as described (Chan et al. Antimicrob. Agents Chemother., 2004, 48(1), 340-343). At the end of incubation, suspensions were diluted 1/25, and 0.1 ml was injected into each of triplicate BACTEC vials: drug dilution was 1000-fold in the BACTEC vials. Drug carryover controls (to ascertain absence of any carryover drug) consisting of the same MTB suspension as in the test and similar drug dilutions were mixed immediately, diluted 1/25, and 0.1 ml was injected into BACTEC vials. BACTEC vials were incubated at 37° C. and read in a BACTEC TB-460 reader every 24 hr until the cumulative GI in the control reached 999. PAE was calculated from the formula PAE=T−C, where T is the time required for the drug-exposed organisms to reach a cumulative GI of 100 and C is the time required for the controls to reach a cumulative GI of 100.
PAE determines the time required for the organisms to recover following exposure to an antimicrobial agent for a short duration. PAE activities of both SQ641 and INH, each at 4 μg/ml, were investigated with MTB-H37Rv. Following 2 hr of exposure to drugs, the PAE of INH was 17 hr as compared to 55 hr for SQ641. The PAE of SQ641 was over 3 times that of INH.

[13] = test system: M. abscessus (MAB; ATCC 700869); assay: MIC by microdilution method in 7H9 broth; format: cell-based; details: Mycobacteroides abscessus, ATCC700869; MAB 700869; read-out: MIC
[14] = test system: MTB in J774A.1 cells; assay: Intracellular activity of SQ641 with efflux pump blockers; format: cell-based, Mycobacterium tuberculosis; details: INH 0.25 μg/ml

With “D-alpha-tocopheryl poly(ethylene glycol) 1000 succinate [TPGS]” the “Lung CFU ± SD” value ([1]; IP, 250 mg/kg) was 3.0 ± 1.3 × 10^8 CFU, the “Lung Log CFU” value ([1]; IP, 250 mg/kg) was 8.48 Log CFU and the “Effect of TPGS alone on MTB growth in macrophages” value [2] was “increased MTB growth”. For the same compound, the “Mean RLU on day 7” value [2] was 13903 RLU and 14595 RLU and 13942 RLU.
CO[C@H]1[C@@H](OC(=O)CCCCCCCCCCN)[C@H](N2C=CC(=O)NC2)O[C@@H]1[C@@H](OC1OC(C(=O)N[C@H]2CCC[C@@H](C)NC2=O)=C[C@H](O)[C@@H]1O)C(N)=O (some centres unmarked) [997-aminoundecanoic acid] showed an MIC [3] of 2 mg/L (≈ 2.66 µM) and an IC50 [4] of 32 mg/L (≈ 42.5 µM).
With NNC(=O)c1ccncc1 [INH, isoniazid, reference compound] the “Mean RLU at Day 7” value ([5]; Expt 1, one day drug exposure, 0.5 μg/ml, Day 0 RLU 104, CONTROL Day 7 906) was 8 RLU, the “Mean RLU at Day 7” value ([5]; Expt 2, four days drug exposure, 0.25 μg/ml, Day 0 RLU 205, CONTROL Day 7 491) was 1 RLU and the MIC ([6]; ATCC 12478 / ATCC 35775, MKN ATCC35775) was 1 mg/L (≈ 7.29 µM). The MIC ([6]; MKN ATCC12478) was 2 mg/L (≈ 14.6 µM), the MIC [7] was 8 mg/L (≈ 58.3 µM) and the “Mean RLU at Day 7” value [8] was 11 RLU. For the same compound, the “Mean RLU on day 7” value [9] was 131 RLU, the MIC [10] was 0.062 mg/L (≈ 0.452 µM) and the MIC ([10]; Hypoxic, […]) was 0.125 mg/L (≈ 0.911 µM). The “Lung CFU ± SD” value ([1]; PO, 25 mg/kg) was 1.9 ± 0.8 × 10^7 CFU, the “Lung Log CFU” value ([1]; PO, 25 mg/kg) was 7.28 Log CFU and the “MIC Combination” value ([11]; combination SQ641 + INH) was 1.0 mg/L. The MIC ([11]; Mycolicibacterium smegmatis, drug alone) was 8 mg/L, the “PAE (post-antibiotic effect)” value [12] was 17 h and the “Mean RLU on day 7” value ([2]; INH 0.125 μg/ml, day 0 RLU 1397, Control day 7 9075) was 434 RLU. The MIC [13] was over 32 mg/L, the “Mean RLU at Day 7” value ([14]; Table 13, Day 0 RLU 425, Control Day 7 6283) was 127 RLU and the “Mean RLU at Day 7” value ([14]; Table 14, Day 0 RLU 811, Control Day 7 3004) was 20 RLU.
With CO[C@H]1[C@@H](OC(=O)[C@@H](N)C(C)C)[C@H](N2C=CC(=O)NC2)O[C@@H]1[C@@H](OC1OC(C(=O)N[C@H]2CCC[C@@H](C)NC2=O)=C[C@H](O)[C@@H]1O)C(N)=O (stereo partly drawn) [Compound 997-L-Val] the MIC [3] was 12.5 mg/L (≈ 18.7 µM) and the IC50 [4] was over 32 mg/L.
